Assay results from article PMC4424837, “Toxin acidic residue evolutionary function-guided design of de novo peptide drugs for the immunotherapeutic target, the Kv1.3 channel” (Scientific Reports, 2015).
Positions of bridges follow the written chain, without caps; N, C: chain ends. Residues, ends and D or L forms follow the SMILES beside them. No end group written: not given here.

Key:
Kv1.3 channel = target: T1, Kv1.3 channel (Mus musculus, UniProt P16390); test: Patch-clamp whole-cell recording of Kv1.3 channel currents in transfected HEK293 cells; format: cell-based; settings: for Reduction of the affinity of BmKTX-196 for the Kv1.3 channel: alanyl mutants of BmKTX-196
T1 construct: expressed in transfected cells; host or cells: HEK293 cells
Procedure: (§1) The cDNAs encoding mouse Kv1.1, human Kv1.2, mouse Kv1.3, human Kv7.1, human Kv11.1, human KCa3.1, human KCa2.2 and human KCa2.3 were subcloned into the Xho I and Bam HI sites of pIRES2-EGFP, a bicistronic expression vector (Clontech, USA) for coexpression with enhanced GFP.
(§2) Electrophysiological experiments were carried out using patch-clamp whole-cell recording as described previously[10][23][27][38]. HEK293 cells were transfected with appropriate cDNA plasmids using the SofastTM Transfection Reagent (Sunma). Potassium currents were recorded 1 to 3 days after transfection and positive cells were selected based on the presence of GFP fluorescence. Electrophysiological experiments were carried out at 22–25°C using patch-clamp whole-cell recording. Data analyses were performed with IgorPro (WaveMetrics, Lake Oswego, OR), and IC50 values were deduced by fitting a modified Hill equation to the data, Itoxin/Icontrol = 1/1 + ([toxin peptide]/IC50), where I is the peak current to the normalized data points obtained with at least five different toxin peptide concentrations. The results are mainly shown as the mean ± S.E, with n representing the number of experiments.

Kv11.1 = test: Patch-clamp whole-cell recording of Kv11.1 channel currents in transfected HEK293 cells; format: cell-based, human; settings: 1 μM peptide, compared with Kv1.3
Procedure: as §1, §2

T1 sequence (P16390 whole entry): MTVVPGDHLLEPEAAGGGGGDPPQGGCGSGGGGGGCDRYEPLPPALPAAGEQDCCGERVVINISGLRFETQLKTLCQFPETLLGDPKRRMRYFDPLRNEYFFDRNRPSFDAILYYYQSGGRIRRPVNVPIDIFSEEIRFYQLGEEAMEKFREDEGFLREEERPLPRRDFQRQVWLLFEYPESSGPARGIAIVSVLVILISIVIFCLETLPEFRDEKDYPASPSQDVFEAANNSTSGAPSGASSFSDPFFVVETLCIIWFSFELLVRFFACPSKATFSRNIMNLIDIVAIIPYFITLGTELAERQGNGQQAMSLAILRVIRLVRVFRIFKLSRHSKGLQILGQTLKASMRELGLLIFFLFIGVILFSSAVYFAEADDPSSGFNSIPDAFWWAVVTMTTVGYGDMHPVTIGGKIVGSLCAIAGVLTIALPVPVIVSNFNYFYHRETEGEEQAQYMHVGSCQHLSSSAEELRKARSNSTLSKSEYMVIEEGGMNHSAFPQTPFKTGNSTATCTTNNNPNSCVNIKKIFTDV

CC[C@H](C)[C@H](NC(=O)CNC(=O)[C@@H](N)C(C)C)C(=O)N[C@@H](CC(N)=O)C(=O)N[C@H](C(=O)N[C@@H](CC(=O)O)C(=O)N[C@H]1CSSC[C@@H]2NC(=O)[C@H](CCCCN)NC(=O)CNC(=O)[C@H](Cc3ccccc3)NC(=O)[C@H](CCCNC(=N)N)NC(=O)[C@H](CCSC)NC(=O)CNC(=O)[C@H](C)NC(=O)[C@H](CCCCN)NC(=O)[C@H](CCCCN)NC(=O)[C@@H]3CSSC[C@@H](C(=O)N[C@H](C(=O)N4CCC[C@H]4C(=O)N[C@@H](CCCCN)C(=O)O)[C@@H](C)O)NC(=O)[C@H](CC(=O)O)NC(=O)[C@H](CSSC[C@H](NC(=O)[C@H](CCC(N)=O)NC(=O)CNC(=O)[C@H](CO)NC(=O)[C@H](Cc4c[nH]cn4)NC(=O)[C@H](CCCCN)NC1=O)C(=O)N[C@@H](CC(C)C)C(=O)N[C@@H](CCCCN)C(=O)N1CCC[C@H]1C(=O)N3)NC(=O)[C@H](CCCCN)NC(=O)CNC(=O)[C@H](CC(N)=O)NC(=O)[C@H]([C@@H](C)CC)NC2=O)C(C)C [BmKTX-196] (H-VGINVDCKHSGQCLKPCKKAGMRFGKCINGKCDCTPK-OH; disulfide 7-27, 13-32, 17-34)
Inhibition of Kv1.3 channel currents (Kv1.3 channel; 10 nM peptide, whole-cell patch clamp, HEK293): more than 50% | IC50 (Kv1.3 channel; whole-cell patch clamp, HEK293 transfected with mouse Kv1.3, 22-25°C, Hill fit, at least five concentrations, mean ± S.E. of at least three experiments, read-out: IC50 for inhibiting Kv1.3 channel current): 7.3 ± 1.8 nM | Effect on Kv11.1 channel currents (Kv11.1): much less of an effect

BmKTX-19/K6A: alanyl mutant of BmKTX-19 at Lys6 (VGINVACKHSGQCLKPCKKAGMRFGKCINGKCDCTPKG; ends and bridges not checked; cysteine pairing not given here)
Impact on the inhibitory potency of BmKTX-19 on Kv1.3 (Kv1.3 channel; alanine-scanning mutagenesis, alanyl mutants of BmKTX-19, compared with the Lys8, His9 and Lys15 substitutions): much less of an impact

BmKTX-196/H9A: alanyl mutant of BmKTX-196 at His9 (VGINVDCKASGQCLKPCKKAGMRFGKCINGKCDCTPKG; ends and bridges not checked; cysteine pairing not given here)
Reduction of the affinity of BmKTX-196 for the Kv1.3 channel (Kv1.3 channel; alanine-scanning mutagenesis): 3 fold

BmKTX-196/K8A: alanyl mutant of BmKTX-196 at Lys8 (VGINVDCAHSGQCLKPCKKAGMRFGKCINGKCDCTPKG; ends and bridges not checked; cysteine pairing not given here)
Reduction of the affinity of BmKTX-196 for the Kv1.3 channel (Kv1.3 channel; alanine-scanning mutagenesis): 68 fold
